From patent US8952024B2, “Herbicidal pyrimidone derivatives” (E I du Pont de Nemours and Company, priority 2009, dated 2015)

Legend:
Type in all cases: in vivo
[1] = tested on: wheat (Triticum aestivum); test: Test A pre-/postemergence plant response
Procedure, shortened: (§1)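 Both pre- and postemergence treatments are applied simultaneously, using chemicals formulated in a non-phytotoxic solvent mixture with surfactant. Postemergence plants are 2–10 cm high with one to two leaves. After approximately ten days in a greenhouse, injury is scored visually from 0 (none) to 100 (complete control) relative to untreated plants.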

[2] = tested on: giant foxtail (Setaria faberii); test: Test A pre-/postemergence plant response
Procedure, shortened: as §1

[3] = tested on: velvetleaf (Abutilon theophrasti); test: Test A pre-/postemergence plant response
Procedure, shortened: as §1

[4] = tested on: large crabgrass (Digitaria sanguinalis); test: Test A pre-/postemergence plant response
Procedure, shortened: as §1

[5] = tested on: pigweed (Amaranthus retroflexus); test: Test A pre-/postemergence plant response
Procedure, shortened: as §1

corn (Zea mays) = test: Test A pre-/postemergence plant response
Procedure, shortened: as §1

[6] = tested on: morningglory (Ipomoea spp.); test: Test A pre-/postemergence plant response
Procedure, shortened: as §1

[7] = tested on: barnyardgrass (Echinochloa crus-galli); test: Test A pre-/postemergence plant response
Procedure, shortened: as §1

rice (Oryza sativa) = test: Test B flooded paddy test
Procedure, shortened: (§2)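 Flooded-pot test: water raised to 3 cm above soil when treating, compound put in the water, level unchanged thereafter. Plants were at 2 leaves. Readout after 13 to 15 days, visual, relative to controls; 0 signifies no effect and 100 complete control.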

[8] = tested on: umbrella sedge (Cyperus difformis); test: Test B flooded paddy test
Procedure, shortened: as §2

[9] = tested on: barnyardgrass (Echinochloa crus-galli); test: Test B flooded paddy test
Procedure, shortened: as §2

[10] = tested on: ducksalad (Heteranthera limosa); test: Test B flooded paddy test
Procedure, shortened: as §2

[11] = Postemergence, 125 g ai/ha, visual injury, 0 to 100 scale (0 no effect, 100 complete control), approx. ten days
[12] = Postemergence, 500 g ai/ha, visual injury, 0 to 100 scale (0 no effect, 100 complete control), approx. ten days
[13] = Preemergence, 125 g ai/ha, 0 to 100 scale where 0 is no effect and 100 is complete control, approximately ten days
[14] = Preemergence, 500 g ai/ha, 0 to 100 scale, 0 = no effect, 100 = complete control
[15] = Postemergence, 125 g ai/ha, 0 to 100 scale where 0 is no effect and 100 is complete control
[16] = 250 g ai/ha, flooded paddy test, visual rating on 0 to 100 scale (0 no effect, 100 complete control) after 13 to 15 days
[17] = Flood (flooded paddy test), 62 g ai/ha, scale of 0 to 100 where 0 is no effect and 100 is complete control, 13 to 15 days

Compound: O=C(C1=C(O)C2CCC(C2)C1=O)c1cnc(-c2cccc(Br)c2)n(C2CCCCC2)c1=O (stereo not shown) [Compound 252]
- Plant response rating, Wheat [1, 11]: 0
- Wheat plant response rating [1, 12]: 10
- Plant response rating, Wheat [1, 13]: 0
- Plant response rating, Wheat [1, 14]: 0
- Plant response rating, Foxtail, Giant [2, 11]: 40
- Foxtail, Giant plant response rating [2, 12]: 60
- Plant response rating, Foxtail, Giant [2, 13]: 0
- Plant response rating, Foxtail, Giant [2, 14]: 10
- Plant response rating, Velvetleaf [3, 11]: 70
- Velvetleaf plant response rating [3, 12]: 90
- Plant response rating, Velvetleaf [3, 13]: 20
- Plant response rating, Velvetleaf [3, 14]: 50
- Plant response rating, Crabgrass, Large [4, 15]: 30
- Crabgrass, Large plant response rating [4, 12]: 60
- Plant response rating, Crabgrass, Large [4, 13]: 10
- Plant response rating, Crabgrass, Large [4, 14]: 20
- Plant response rating, Pigweed [5, 11]: 70
- Pigweed plant response rating [5, 12]: 90
- Plant response rating, Pigweed [5, 13]: 0
- Plant response rating, Pigweed [5, 14]: 40
- Plant response rating, Corn (corn (Zea mays); [15]): 0
- Corn plant response rating (corn (Zea mays); [12]): 10
- Plant response rating, Corn (corn (Zea mays); [13]): 0
- Plant response rating, Corn (corn (Zea mays); [14]): 0
- Plant response rating, Morningglory [6, 11]: 80
- Morningglory plant response rating [6, 12]: 100
- Plant response rating, Morningglory [6, 13]: 0
- Plant response rating, Morningglory [6, 14]: 10
- Plant response rating, Barnyardgrass [7, 15]: 80
- Barnyardgrass plant response rating [7, 12]: 90
- Plant response rating, Barnyardgrass [7, 13]: 0
- Plant response rating, Barnyardgrass [7, 14]: 0
- Plant response rating, Flood, Rice (rice (Oryza sativa); [16]): 0
- Plant response rating, Rice (rice (Oryza sativa); [17]): 0
- Plant response rating, Flood, Sedge, Umbrella [8, 16]: 0
- Plant response rating, Sedge, Umbrella [8, 17]: 0
- Plant response rating, Flood, Barnyardgrass [9, 16]: 0
- Plant response rating, Barnyardgrass [9, 17]: 0
- Plant response rating, Flood, Ducksalad [10, 16]: 0
- Plant response rating, Ducksalad [10, 17]: 0
